The target of one test is human V2 receptor (Homo sapiens, UniProt P30518). As to the kind of experiment: V2 binding assay (3H-AVP displacement, HEK-293 membranes). Also on record: expressed in transfected cells; host or cells: HEK-293 (membranes). Particulars: 1.0 μM compound; for inhibition at 1 µM: read-out: V2@1.0, % Inh. On the procedure:
(§1) V1a, V1b or V2 Binding Assay
(§2) Receptor binding studies were performed using recombinant human V1a, V1b or V2 receptors. Cellular membranes were harvested from HEK-293 cells transfected to express either the V1a, V1b or V2 receptors. Compounds were evaluated for their ability to displace ^3H-arginine vasopressin (^3H-AVP; specific activity 40-87 Ci/mmol; NEN Life Sciences, Boston, Mass.). Compounds were solubilized in dimethylsulfoxide (DMSO) and diluted to working concentration of 10% DMSO with assay buffer (50 mM Tris, 5 mM MgCl2, 0.1% BSA, pH 7.5). Assay buffer was supplemented with several protease inhibitors (1 mM Pefabloc, 5 μg/ml aprotinin/leupeptin/pepstatin A, 50 μg/ml bacitracin; Sigma Chemical, St. Louis, Mo.). Non-specific binding was determined using 1.25 μM arginine vasopressin (AVP; Peninsula Labs, Belmont, Calif.). Assay reagents and test compounds were added to 96-well round bottom polypropylene plates (145 μl buffer, 5 μl compound in 10% DMSO, 25 μl buffer containing 10,000 cpm tracer, 25 μl cell membrane). After incubation for 1 hour at room temperature, the well contents were aspirated across a Unifilter GF/C plate (Packard Instrument, Downers Grove, Ill.) which had been presoaked in 0.3% polyethyleneimine to prevent peptide sticking. The wells were washed repeatedly with cold saline containing 0.05% Tween 20. The plate was then dried and 25 μl Microscint-20 cocktail (Packard Instruments) added to each well. The plates were sealed and counted on a TopCount scintillation counter (Packard Instruments) using quench correction.

The next test deals with human V1a receptor (Homo sapiens, UniProt P37288). As to the kind of experiment: V1a binding assay (3H-AVP displacement, HEK-293 membranes). Also noted: expressed in transfected cells; host or cells: HEK-293 (membranes). Particulars: for inhibition at 1 µM: read-out: V1a@1.0, % Inh. On the procedure:
as §1, §2

In another test the target is T1, human V1b receptor (Homo sapiens, UniProt P47901).
T1 sequence (P47901 1-424): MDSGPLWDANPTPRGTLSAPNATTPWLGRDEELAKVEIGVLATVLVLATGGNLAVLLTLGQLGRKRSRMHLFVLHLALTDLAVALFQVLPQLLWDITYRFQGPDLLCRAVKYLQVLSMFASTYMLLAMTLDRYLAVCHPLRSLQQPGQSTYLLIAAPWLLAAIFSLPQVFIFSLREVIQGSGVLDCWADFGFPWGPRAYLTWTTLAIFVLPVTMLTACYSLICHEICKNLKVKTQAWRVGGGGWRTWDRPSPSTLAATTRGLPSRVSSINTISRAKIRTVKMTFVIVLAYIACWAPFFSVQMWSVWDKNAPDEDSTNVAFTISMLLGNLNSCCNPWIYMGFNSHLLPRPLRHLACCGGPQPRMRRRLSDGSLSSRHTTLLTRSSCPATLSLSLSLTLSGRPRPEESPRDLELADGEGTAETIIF
As to the kind of experiment: V1b binding assay (3H-AVP displacement, HEK-293 membranes). Also noted: expressed in transfected cells; host or cells: HEK-293 (membranes). Particulars: for inhibition at 10 µM: read-out: V1b % Inh @10; for inhibition at 1 µM: 1.0 μM compound, read-out: V1b@1.0, % Inh. Here is the method: as §1, §2

Another test has as its target T2, NPY2 receptors (Homo sapiens, UniProt P49146).
T2 construct: Cell Membranes from KAN-TS cells having NPY2 receptors; endogenous in cells; host or cells: KAN-TS cells (membranes)
T2 sequence (P49146 1-381): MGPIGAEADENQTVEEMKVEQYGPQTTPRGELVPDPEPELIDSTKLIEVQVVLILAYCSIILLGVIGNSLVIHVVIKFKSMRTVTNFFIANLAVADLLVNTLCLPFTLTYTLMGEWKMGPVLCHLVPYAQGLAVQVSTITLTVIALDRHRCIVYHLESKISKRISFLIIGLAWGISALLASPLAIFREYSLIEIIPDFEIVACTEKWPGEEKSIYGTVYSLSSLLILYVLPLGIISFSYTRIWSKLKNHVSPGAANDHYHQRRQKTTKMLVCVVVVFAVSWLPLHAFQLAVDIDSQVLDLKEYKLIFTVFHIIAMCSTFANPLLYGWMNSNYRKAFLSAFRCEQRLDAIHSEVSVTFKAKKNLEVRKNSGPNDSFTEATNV
In words: Neuropeptide Y receptor binding assay (125I-PYY, KAN-TS cell membranes). Particulars: 10 μM compound; for inhibition at 10 µM: read-out: NPY-2@10, % Inh. On the procedure: Neuropeptide Y Receptor Binding Assay
Load 96-well RIA racks with RIA vials (Sarstedt, cat. #73.1055)
Prepare membranes—use 2×15 cm confluent plates/96-well assay plate
Add 14 mls Homogenization buffer/cell pellet
Homogenize at high speed for 15 seconds
Transfer to 15 ml conical tube and spin 5′ at 4° C. at setting 3 in RT6000 centrifuge
Transfer supernatant to 30 ml Corex tube
Balance and spin 25′ at 15,000 rpm at 4° C.
Resuspend pellet in 10 mls Binding buffer
Homogenize at high speed for 15 sec.
Bring volume up to 50 mls in Binding buffer (25 mls/2×96-well plates)
Keep on ice until use or freeze in aliquots (2 plates/tube) in −70° C.
Prepare ^125I-PYY (for 2×96-well compound plates)
Dilute 50 uCi ^125I-PYY in 1 ml H2O
Add 0.4 ml 10% BSA to 20 ml Binding buffer
Add 150 μl ^125I-PYY, mix well
NSB (1 μM PYY final conc.): 40 μl PYY (100 μM stock)+60 μl 30% DMSO in HEPES=40 μM PYY—add 5 μl/well
Total Binding: Add 5 μl/well of Compound Diluent
Add 5 μl compound (final conc. @10 μM)
Incubate at R.T. for 1 hr.
Spin plates for 10′ at setting 9 in RT6000 centrifuge
Aspirate supernatant from tubes, add 300 μl PBS and aspirate again.
After plates are washed and aspirated, put individual tubes in 12×75 mm polypropylene carrier tubes. Count on gamma counter.

human V1a receptor, sequence (P37288 whole entry): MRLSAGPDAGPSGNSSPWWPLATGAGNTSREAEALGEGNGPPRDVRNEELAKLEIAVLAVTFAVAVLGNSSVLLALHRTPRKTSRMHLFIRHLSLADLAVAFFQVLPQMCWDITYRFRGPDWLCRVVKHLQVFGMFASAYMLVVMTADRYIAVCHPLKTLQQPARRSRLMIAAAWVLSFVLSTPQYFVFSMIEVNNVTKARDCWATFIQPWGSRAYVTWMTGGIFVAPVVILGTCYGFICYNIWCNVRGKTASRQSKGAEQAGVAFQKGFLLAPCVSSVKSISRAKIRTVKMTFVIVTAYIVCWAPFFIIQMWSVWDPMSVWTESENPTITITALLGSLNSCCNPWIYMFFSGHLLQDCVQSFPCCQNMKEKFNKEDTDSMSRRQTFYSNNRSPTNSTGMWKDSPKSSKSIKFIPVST
human V2 receptor, sequence (P30518 whole entry): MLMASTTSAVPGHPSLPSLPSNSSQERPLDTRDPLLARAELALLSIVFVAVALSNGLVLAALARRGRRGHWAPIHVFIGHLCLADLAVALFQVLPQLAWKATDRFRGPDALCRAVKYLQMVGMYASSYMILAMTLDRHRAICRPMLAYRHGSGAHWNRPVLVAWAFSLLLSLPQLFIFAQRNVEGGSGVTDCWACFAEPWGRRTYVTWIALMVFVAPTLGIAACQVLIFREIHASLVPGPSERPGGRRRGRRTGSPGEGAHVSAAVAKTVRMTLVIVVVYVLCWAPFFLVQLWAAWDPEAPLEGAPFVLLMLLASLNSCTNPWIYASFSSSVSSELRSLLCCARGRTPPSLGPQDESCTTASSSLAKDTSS

Take `CC(NC(=O)N1CCC(n2c(=O)[nH]c3ccccc32)CC1)c1cccc2ccccc12` (stereo in doubt) [Compound 7]: on human V2 receptor, the inhibition at 1 µM was 31%. At human V1a receptor, this compound returned an IC50 of 9200 nM. For the same compound, the results for the inhibition at 10 µM at human V1b receptor (10 μM compound) and at NPY2 receptors were 11% and 13%, respectively.
`O=c1[nH]c2ccccc2n1C1CCN(C(=S)NC(c2ccccc2)c2ccccc2)CC1` [Compound 1, 1-[(N1-Piperidinocarbothioyldiphenylmethylamino)-4-yl]-1,3-dihydro-benzimidazol-2-one]: the inhibition at 1 µM at human V2 receptor came to 38%. The compound also gave an IC50 on human V1a receptor of 590 nM. In addition, the inhibition at 10 µM stood at 0% at human V1b receptor (10 μM compound) and 52% at NPY2 receptors.
Take `COc1ccccc1NC(=S)N1CCC(n2c(=O)[nH]c3ccccc32)CC1` [Compound 4, 1-[N1-Piperidinocarbothioyl-(2-methoxyphenyl)amino-4-yl]-1,3-dihydro-benzimidazol-2-one]: the “V2@1.0, % Inh” value at human V2 receptor was 0%. Besides, the “V1a@1.0, % Inh” value at human V1a receptor (1.0 μM compound) was determined as 0%. In addition, the “V1b % Inh @10” value at human V1b receptor (10 μM compound) came out at 0%@10. On NPY2 receptors, the “NPY-2@10, % Inh” value came out at 6%.
On to `COc1cc(NC(=S)N2CCC(n3c(=O)[nH]c4ccccc43)CC2)cc(OC)c1OC` [Compound 6], for which the results for the inhibition at 1 µM on human V2 receptor and on human V1a receptor (1.0 μM compound) were 9% and 20%, respectively. Also, the inhibition at 10 µM at human V1b receptor (10 μM compound) is 0%; on NPY2 receptors it was 16%.
On the same counts, the results for `O=C(NC(=S)N1CCC(n2c(=O)[nH]c3ccccc32)CC1)c1ccccc1` [Compound 8] are 10%, 55%, 13% and 5%.
For `Cn1c(=O)n(C2CCN(C(=S)NC(c3ccccc3)c3ccccc3)CC2)c2ccccc21` [Compound 10, 3-Methyl-1-[(N1-Piperidinocarbothioyldiphenylmethylamino)-4-yl]-1,3-dihydro-benzimidazol-2-one], on human V2 receptor, the inhibition at 1 µM came to 51%. At human V1a receptor, this compound yielded an IC50 of 380 nM. Further, the inhibition at 10 µM on NPY2 receptors stood at 34%.
Take `O=c1[nH]c2ccccc2n1C1CCN(C(=S)NCc2ccccc2)CC1` [Compound 11]: at human V2 receptor, the inhibition at 1 µM turned out to be 3%. In addition, the IC50 at human V1a receptor is 3100 nM. In addition, the inhibition at 10 µM on human V1b receptor (10 μM compound) was 0%; on NPY2 receptors it was 26%.
On to `COc1ccccc1CNC(=S)N1CCC(n2c(=O)[nH]c3ccccc32)CC1` [Compound 14], for which the inhibition at 1 µM at human V2 receptor is 1%; at human V1a receptor (1.0 μM compound) it was 0%. Further, the figures for the inhibition at 10 µM at human V1b receptor (10 μM compound) and on NPY2 receptors were 0% and 18%, respectively.
`O=c1[nH]c2ccccc2n1C1CCN(C(=S)NCc2cccc3ccccc23)CC1` [Compound 15]: the inhibition at 1 µM was found to be 10% at human V2 receptor and 17% at human V1a receptor (1.0 μM compound). Besides, the inhibition at 10 µM on human V1b receptor (10 μM compound) was 7%; at NPY2 receptors, 14%.
In the same order, the values of `O=c1[nH]c2ccccc2n1C1CCN(C(=S)NCc2ccc3c(c2)OCO3)CC1` [Compound 16] are 0%, 40%, 15% and 15%.
On to `O=c1n(CCN2CCOCC2)c2ccccc2n1C1CCN(C(=S)NC(c2ccccc2)c2ccccc2)CC1` [Compound 19, 1-[(N1-Piperidinocarbothioyldiphenylmethylamino)-4-yl]-3-(2-N-morpholinoethyl)-1,3-dihydro-benzimidazol-2-one], for which the inhibition at 1 µM at human V2 receptor turned out to be 42%. In addition, the IC50 on human V1a receptor is 270 nM. On NPY2 receptors, the inhibition at 10 µM is 69%.
Take `CCc1ccc(CCNC(=S)N2CCC(n3c(=O)[nH]c4ccccc43)CC2)cc1` [Compound 21]: the inhibition at 1 µM is 19% on human V2 receptor and 31% on human V1a receptor (1.0 μM compound). For the same compound, the inhibition at 10 µM on NPY2 receptors was 13%.
Consider `O=C(O)C(Cc1ccccc1)NC(=S)N1CCC(n2c(=O)[nH]c3ccccc32)CC1` (stereo not drawn) [Compound 41], for which the values for the inhibition at 1 µM at human V2 receptor and at human V1a receptor (1.0 μM compound) were 0% and 8%, respectively. The inhibition at 10 µM on NPY2 receptors is 11%.
On the same counts, the results for `CN1CCN(C(=O)C(Cc2ccccc2)NC(=S)N2CCC(n3c(=O)[nH]c4ccccc43)CC2)CC1` (stereo not drawn) [Compound 45] are 9%, 54% and 15%.
The compound `COC(=O)C(Cc1ccccc1)NC(=S)N1CCC(n2c(=O)n(CCCNC(=O)OCc3ccccc3)c3ccccc32)CC1` (stereo not drawn) [Compound 52] came in with an IC50 at human V1a receptor of 580 nM. For the same compound, the inhibition at 10 µM is 13% at human V1b receptor (10 μM compound) and 11% at NPY2 receptors.
As to `O=c1n(CCCN2CCCCC2)c2ccccc2n1C1CCN(C(=S)NCc2ccccc2-c2ccccc2)CC1` [Compound 169], the “V2@1.0, % Inh” value on human V2 receptor (1 µM) amounted to 4%. For the same compound, the IC50 was 12 nM on human V1a receptor and 1720 nM at human V1b receptor.
Turning to `O=c1n(CCCN2CCC(N3CCCCC3)CC2)c2ccccc2n1C1CCN(C(=S)NC(c2ccccc2)c2ccccc2)CC1` [Compound 170], on human V2 receptor, the inhibition at 1 µM is 6%. Moreover, the IC50 at human V1a receptor is 80 nM; on human V1b receptor, 680 nM.
Regarding `Cc1ccc2c(c1)n(CCCN1CCCCC1)c(=O)n2C1CCN(C(=O)NC(c2ccccc2)c2ccccc2)CC1` [Compound 171], the inhibition at 1 µM was found to be 2% on human V2 receptor, 65% on human V1a receptor (1.0 μM compound) and 33% at human V1b receptor.
Regarding `Cc1ccc2c(c1)n(CCCN1CCCCC1)c(=O)n2C1CCN(C(=S)NC(c2ccccc2)c2ccccc2)CC1` [Compound 172], the inhibition at 1 µM at human V2 receptor was 6%. Further, the IC50 was 72 nM on human V1a receptor and 700 nM on human V1b receptor.
Consider `CC(C)(NC(=S)N1CCC(n2c(=O)n(CCCN3CCCCC3)c3ccccc32)CC1)c1ccccc1` [Compound 173], for which the inhibition at 1 µM on human V2 receptor was determined as 0%; at human V1b receptor, 43%. The same compound came in with a concentration for half-maximal inhibition (IC50) at human V1a receptor of 250 nM.
On the same counts, the results for `O=c1n(CCCN2CCCCC2)c2ccccc2n1C1CCN(C(=S)NCc2ccc(Cl)c(Cl)c2)CC1` [Compound 174] are 0%, 34% and 420 nM.
